# Source: the supplement of paper PMC10307832
# Tests used:
# Assay in all cases: relative viability (nuclei count vs DMSO), 5 days (fraction); higher = more cells survive
# [1] = compound: O=c1ncccn1[C@@H]1O[C@H](CO)[C@@H](O)[C@H]1O [Zebularine] + CCNC(=O)c1noc(-c2cc(C(C)C)c(O)cc2O)c1-c1ccc(CN2CCOCC2)cc1 [Luminespib] (partner 0.01 µM)
# Summary of the method: (§1)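 Lung cancer cell lines, seeded in 1536-well plates, were treated the following day by pin tool with a single drug or with five library-drug doses (not always all listed) in √10 steps on top of a fixed anchor-drug dose. Cells were fixed and nuclei stained in one step after 5 days, and nuclei were counted. Relative viability is the nuclei count for treated wells divided by that for vehicle wells, reported as medians of duplicate plates.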
# [2] = compound: O=c1ncccn1[C@@H]1O[C@H](CO)[C@@H](O)[C@H]1O [Zebularine] + CS(=O)(=O)CCNCc1ccc(-c2ccc3ncnc(Nc4ccc(OCc5cccc(F)c5)c(Cl)c4)c3c2)o1 [Lapatinib] (partner 2 µM)
# Summary of the method: as §1
# [3] = compound: O=c1ncccn1[C@@H]1O[C@H](CO)[C@@H](O)[C@H]1O [Zebularine] + NC(=O)Nc1cc(-c2cccc(F)c2)sc1C(=O)N[C@H]1CCCNC1 [AZD7762] (partner 0.2 µM)
# Summary of the method: as §1
# [4] = compound: CC(C)CCN1c2nc(Nc3cc(F)c(O)c(F)c3)ncc2N(C)C(=O)C1C [BI-D1870] + COc1cccc2cc(-c3nc([C@H]4CC[C@H](C(=O)O)CC4)n4ncnc(N)c34)[nH]c12 [OSI-027] (partner 0.5 µM)
# Summary of the method: as §1
Cell Line,relative viability ([1]; first compound 1 µM),relative viability ([1]; first compound 3.162 µM),relative viability ([1]; first compound 10 µM),relative viability ([1]; first compound 31.62 µM),relative viability ([1]; first compound 100 µM),relative viability ([2]; first compound 1 µM),relative viability ([2]; first compound 3.162 µM),relative viability ([2]; first compound 10 µM),relative viability ([2]; first compound 31.62 µM),relative viability ([2]; first compound 100 µM),relative viability ([3]; first compound 1 µM),relative viability ([3]; first compound 3.162 µM),relative viability ([3]; first compound 10 µM),relative viability ([3]; first compound 31.62 µM),relative viability ([3]; first compound 100 µM),relative viability ([4]; first compound 0.04 µM),relative viability ([4]; first compound 0.1265 µM),relative viability ([4]; first compound 0.4 µM),relative viability ([4]; first compound 1.265 µM),relative viability ([4]; first compound 4 µM)
201T,1.09,1.1,0.894,1.04,0.724,1.05,1.09,0.902,1.06,1.11,0.674,0.594,0.426,0.691,0.607,0.742,0.826,0.702,0.801,0.683
A549,–,–,–,–,–,1.16,0.941,0.438,0.698,0.2,–,–,–,–,–,–,–,–,–,–
A-427,1.01,0.856,0.53,0.383,0.261,1.13,1.01,0.691,0.58,0.256,0.753,0.628,0.487,0.501,0.287,0.547,0.429,0.574,0.61,0.528
ABC-1,0.476,–,0.458,0.317,0.364,1.05,1.08,0.655,0.642,0.605,0.816,–,0.554,0.538,0.54,0.669,0.406,0.416,0.501,0.319
BEN,0.448,0.172,0.235,0.262,0.178,0.661,0.491,0.347,0.311,0.22,0.808,0.587,0.504,0.496,0.296,0.296,0.289,0.283,0.311,0.283
CAL-12T,0.49,0.717,0.244,0.355,0.582,0.757,0.658,–,0.701,0.633,0.659,0.674,0.501,0.689,0.602,0.593,0.449,0.477,0.599,0.303
COR-L23,0.88,0.753,0.332,0.439,0.171,1.1,0.924,0.5,0.383,0.232,–,–,–,–,–,0.883,0.722,0.707,0.823,0.577
COR-L 105,0.844,0.839,0.508,1.06,0.652,0.388,0.367,0.362,0.361,0.364,–,–,–,–,–,0.769,0.682,0.619,0.808,0.754
Calu-6,–,–,–,–,–,1.17,0.99,0.604,0.813,0.347,–,–,–,–,–,–,–,–,–,–
ChaGo-K-1,0.657,0.508,0.212,0.221,0.217,–,–,–,–,–,0.916,0.862,0.427,0.337,0.249,0.652,0.55,0.547,0.559,0.538
EBC-1,–,–,–,–,–,0.244,0.197,–,0.205,0.212,–,–,–,–,–,–,–,–,–,–
EKVX,0.863,0.847,0.867,0.807,0.653,0.218,0.182,–,0.211,0.184,0.846,0.816,–,0.593,0.772,0.68,0.608,0.64,0.776,0.641
EMC-BAC-2,1.27,1.1,0.842,1.38,1.35,0.984,0.964,0.647,0.968,0.981,1.19,1.2,0.792,1.2,1.15,0.46,0.37,0.351,0.422,0.334
EPLC-272H,0.247,0.238,0.237,0.406,0.154,0.935,–,–,0.992,0.598,0.171,–,0.183,0.192,0.24,0.263,0.218,0.272,0.278,0.204
H3255,1.04,0.816,0.797,0.972,0.909,0.249,0.239,0.221,0.235,0.228,1.08,0.909,0.744,0.995,0.904,0.627,0.51,0.548,0.682,0.539
HARA,0.86,–,–,0.833,0.445,0.731,0.906,–,0.896,1.02,0.417,0.31,0.303,0.371,0.336,0.616,0.417,0.503,0.608,0.421
HCC-15,0.297,0.337,0.211,0.34,0.216,0.941,0.822,0.74,0.825,0.401,1.24,1.41,0.883,1.17,0.984,0.732,0.611,0.638,0.765,0.396
HCC-44,1.17,1.15,0.746,0.374,0.388,1.07,1.07,0.566,0.951,0.454,1.11,1.03,1.15,1.14,1.01,0.751,0.5,0.642,0.464,0.383
HCC-78,–,–,–,–,–,1.1,0.43,0.871,0.729,0.181,0.716,0.743,–,0.648,0.468,0.629,0.346,0.401,0.427,0.309
HCC-366,–,–,–,–,–,1.22,0.984,0.329,0.749,0.0986,0.336,0.264,0.219,0.463,0.162,1.1,0.603,0.75,0.818,0.49
